In US20240360134A1, “PYRAZOLOPYRIMIDINES AND THEIR USES AS PDGFR INHIBITORS” (priority 2021, published 2024) one finds IC50 data, which are given here for 15 compounds.

In general, pIC50 refers to −log10 of the IC50, conventionally taken in molar units.

The target of test [1] is His6-TEV-PDGFRβ (557-1016) (Homo sapiens (Human), UniProt P09619). Kind of test: PDGFRβ HTRF Assay. In kind it is biochemical. As to conditions: 800 μM ATP, 0.5 μM TK-substrate biotin peptide, 30 min pre-incubation, 3 hours reaction; read-out: PDGFR HTRF IC50. The protocol:
Instrumentation: a. Compound liquid handling: LabCyte Echo; b. Reagent liquid handling: Thermo Scientific Multidrop Combi; c. BMG PHERAStar multilabel plate reader.
Protein Reagent: His6-TEV-PDGFRβ Protein Prep prepared at Accelagen.
Assay buffer stock solution, contains 50 mM Hepes, 10 mM MgCl2, 1 mM EGTA, and 0.01% Brij-35, 0.01% ovalbumin, 2 mM DTT at pH 7.5, in molecular biology grade water. Store at room temperature.
Assay buffer. Dilute 5× Kinase buffer 5-fold with molecular biology grade water and add DTT to 2 mM and ovalbumin to 0.1 mg/mL (or 0.01%).
2× protein solution. Make a working solution of […] PDGFRβ in assay buffer. Keep on ice until use to maintain enzyme stability.
2× substrate solution. Make a working solution of 1.6 mM ATP and 1 μM TK-substrate biotin peptide in assay buffer. 3× quench/detection solution.
Step 2. PDGFRβ E+I pre-incubation: Add 2 μL 2× protein solution to columns 1-24 using the Multidrop Combi. Centrifuge at 1000 rpm for 1 min. Incubate 30 min at RT
Step 2. Enzymatic reaction: Add 2 μL substrate solution to columns 1-24 to initiate the reaction using the Multidrop Combi; cover/seal the assay plate to reduce evaporation. Centrifuge at 1000 rpm for 1 min. Incubate at room temperature for 3 hours.
Final concentrations of components in PDGFRp cascade assay:
0.5 μM TK-substrate biotin peptide
Step 3. Quench/Detection: Add 2 μl 3× quench/detection solution to columns 1-24 using the Multidrop Combi; cover/seal the plate. Centrifuge 1 min 1000 rpm. Incubate at RT for 60 min.
HTRF ratio values calculated by the instrument (Ratio is acceptor counts/donor counts*10,000) is exported from the plate reader and used in data analysis. The exported data will be used to calculate 1) compound activity and 2) assay statistics. […] Assay statistics can include Robust Z′ and Signal to Background.
% Inhibition Calculation: Percent inhibition will be calculated for sample wells based on the equation: […]
IC50 Calculation: For IC50 determination, full 11-point dose response data will be processed using the following equation: […]
Background: In TR-FRET formats the signal depends on donor and acceptor labels being close together.

The next test deals with PDGFRβ (Rattus norvegicus (Rat), UniProt Q05030). Kind of test: PDGFRβ Cellular Assay (PDGFRb P-Y751 HTRF, PDGF-BB stimulated A10 cells). It is filed as cell-based. The note with it: A10 cells, 3 hours compound, 15 ng/mL PDGFbb for 10 minutes; read-out: PDGFR Cellular IC50. In short, it runs like this: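 Rat A10 cells plated overnight were treated with compound for 3 h, stimulated with rat PDGF-BB (working stock 100 ng/mL in 10% FBS medium) for 10 min, then lysed.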

In test [2] the target is Tb-labeled inactive PDGFRβ (Homo sapiens (Human), UniProt P09619). Kind of test: biochemical. It is filed as binding. The note with it: read-out: PDGFR Lantha IC50.
Another test addresses VEGFR2, unphosphorylated (Homo sapiens (Human), UniProt P35968). Kind of test: VEGFR ADP GLO assay. In kind it is biochemical. The note with it: 5 nM VEGFR2, 1.2 mM ATP, 1 mg/mL Srctide, 180 min. In a few lines:
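Unphosphorylated kinase (10 nM 2× solution) pre-incubated 30 min at RT with compounds (11-point, 3-fold, top 10 µM), then reacted 180 min with srctide and ATP (2×: 2 mg/mL, 2.4 mM) in HEPES pH 7.5 buffer. ADP read by luminescence. IC50 from 4-parameter fit, normalized to DMSO and 1 µM TAK-593.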
In general terms: ADP-Glo first removes unused ATP, then detects ADP through luciferase.

Structures are written as SMILES. pIC50: −log10 of the molar value.

VEGFR2, unphosphorylated, sequence (P35968 whole entry, looked up): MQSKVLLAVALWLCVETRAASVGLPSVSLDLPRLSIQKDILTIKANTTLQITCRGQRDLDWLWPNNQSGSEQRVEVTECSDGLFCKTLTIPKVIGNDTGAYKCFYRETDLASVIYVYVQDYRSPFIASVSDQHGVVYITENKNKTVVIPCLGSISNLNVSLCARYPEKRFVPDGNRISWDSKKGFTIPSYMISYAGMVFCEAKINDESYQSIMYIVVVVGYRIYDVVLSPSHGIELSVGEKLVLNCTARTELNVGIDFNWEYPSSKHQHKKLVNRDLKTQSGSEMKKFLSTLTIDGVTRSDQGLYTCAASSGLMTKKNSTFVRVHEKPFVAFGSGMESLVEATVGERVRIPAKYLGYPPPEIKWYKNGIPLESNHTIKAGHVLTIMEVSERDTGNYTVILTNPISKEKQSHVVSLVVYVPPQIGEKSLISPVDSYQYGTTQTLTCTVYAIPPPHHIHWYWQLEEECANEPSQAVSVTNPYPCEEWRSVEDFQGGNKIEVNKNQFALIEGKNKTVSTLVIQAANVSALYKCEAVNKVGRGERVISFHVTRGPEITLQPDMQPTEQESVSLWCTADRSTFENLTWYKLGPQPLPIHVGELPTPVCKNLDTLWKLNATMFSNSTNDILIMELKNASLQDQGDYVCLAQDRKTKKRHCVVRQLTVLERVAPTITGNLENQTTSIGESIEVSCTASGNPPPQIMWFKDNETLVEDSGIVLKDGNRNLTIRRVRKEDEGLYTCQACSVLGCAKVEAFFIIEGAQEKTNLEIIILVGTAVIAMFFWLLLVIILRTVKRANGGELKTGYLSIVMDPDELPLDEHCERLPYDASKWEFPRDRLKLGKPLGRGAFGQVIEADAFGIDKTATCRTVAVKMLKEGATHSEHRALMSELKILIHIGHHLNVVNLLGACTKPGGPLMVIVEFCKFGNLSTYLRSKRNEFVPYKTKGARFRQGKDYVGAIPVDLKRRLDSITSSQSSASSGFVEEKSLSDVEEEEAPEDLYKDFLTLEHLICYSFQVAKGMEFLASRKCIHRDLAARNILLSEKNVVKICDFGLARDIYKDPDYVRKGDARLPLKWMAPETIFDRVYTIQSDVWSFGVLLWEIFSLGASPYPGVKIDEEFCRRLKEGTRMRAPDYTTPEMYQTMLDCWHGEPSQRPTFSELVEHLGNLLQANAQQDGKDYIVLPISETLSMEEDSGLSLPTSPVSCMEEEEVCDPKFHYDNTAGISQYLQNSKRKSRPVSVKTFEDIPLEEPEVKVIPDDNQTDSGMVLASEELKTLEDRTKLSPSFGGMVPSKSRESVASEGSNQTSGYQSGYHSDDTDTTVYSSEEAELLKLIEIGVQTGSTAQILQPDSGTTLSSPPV
Tb-labeled inactive PDGFRβ, sequence (P09619 whole entry, looked up): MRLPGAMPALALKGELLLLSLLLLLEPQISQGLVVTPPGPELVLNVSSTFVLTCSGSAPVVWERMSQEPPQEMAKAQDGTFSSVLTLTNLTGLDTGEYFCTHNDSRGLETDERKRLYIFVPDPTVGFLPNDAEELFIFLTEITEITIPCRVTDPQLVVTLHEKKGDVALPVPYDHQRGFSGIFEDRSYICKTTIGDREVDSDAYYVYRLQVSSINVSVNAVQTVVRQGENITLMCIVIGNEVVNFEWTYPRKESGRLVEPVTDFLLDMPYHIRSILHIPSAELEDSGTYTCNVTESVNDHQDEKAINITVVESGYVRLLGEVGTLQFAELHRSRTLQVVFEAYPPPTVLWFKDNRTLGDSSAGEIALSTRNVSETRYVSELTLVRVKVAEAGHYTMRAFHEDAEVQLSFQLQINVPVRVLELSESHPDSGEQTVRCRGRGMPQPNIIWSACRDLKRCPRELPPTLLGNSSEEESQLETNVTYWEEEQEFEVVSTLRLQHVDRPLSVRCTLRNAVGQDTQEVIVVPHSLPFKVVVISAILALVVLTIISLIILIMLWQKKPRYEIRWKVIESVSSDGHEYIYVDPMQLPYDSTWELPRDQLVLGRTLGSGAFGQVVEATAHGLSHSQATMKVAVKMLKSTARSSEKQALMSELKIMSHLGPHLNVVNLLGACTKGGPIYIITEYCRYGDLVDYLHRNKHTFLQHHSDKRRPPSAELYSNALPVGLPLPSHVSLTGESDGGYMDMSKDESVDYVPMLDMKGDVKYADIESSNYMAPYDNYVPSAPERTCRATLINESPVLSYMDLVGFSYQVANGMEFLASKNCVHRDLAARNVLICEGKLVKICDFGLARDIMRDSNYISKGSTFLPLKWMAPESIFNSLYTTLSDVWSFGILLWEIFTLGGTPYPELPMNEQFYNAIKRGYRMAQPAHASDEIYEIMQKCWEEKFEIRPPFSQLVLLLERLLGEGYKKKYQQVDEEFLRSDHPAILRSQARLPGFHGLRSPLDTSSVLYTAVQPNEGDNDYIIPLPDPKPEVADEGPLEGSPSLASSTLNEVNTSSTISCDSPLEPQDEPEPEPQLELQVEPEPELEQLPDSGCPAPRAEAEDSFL
His6-TEV-PDGFRβ (557-1016), sequence (P09619 whole entry, looked up): as above
PDGFRβ, sequence (Q05030 whole entry, looked up): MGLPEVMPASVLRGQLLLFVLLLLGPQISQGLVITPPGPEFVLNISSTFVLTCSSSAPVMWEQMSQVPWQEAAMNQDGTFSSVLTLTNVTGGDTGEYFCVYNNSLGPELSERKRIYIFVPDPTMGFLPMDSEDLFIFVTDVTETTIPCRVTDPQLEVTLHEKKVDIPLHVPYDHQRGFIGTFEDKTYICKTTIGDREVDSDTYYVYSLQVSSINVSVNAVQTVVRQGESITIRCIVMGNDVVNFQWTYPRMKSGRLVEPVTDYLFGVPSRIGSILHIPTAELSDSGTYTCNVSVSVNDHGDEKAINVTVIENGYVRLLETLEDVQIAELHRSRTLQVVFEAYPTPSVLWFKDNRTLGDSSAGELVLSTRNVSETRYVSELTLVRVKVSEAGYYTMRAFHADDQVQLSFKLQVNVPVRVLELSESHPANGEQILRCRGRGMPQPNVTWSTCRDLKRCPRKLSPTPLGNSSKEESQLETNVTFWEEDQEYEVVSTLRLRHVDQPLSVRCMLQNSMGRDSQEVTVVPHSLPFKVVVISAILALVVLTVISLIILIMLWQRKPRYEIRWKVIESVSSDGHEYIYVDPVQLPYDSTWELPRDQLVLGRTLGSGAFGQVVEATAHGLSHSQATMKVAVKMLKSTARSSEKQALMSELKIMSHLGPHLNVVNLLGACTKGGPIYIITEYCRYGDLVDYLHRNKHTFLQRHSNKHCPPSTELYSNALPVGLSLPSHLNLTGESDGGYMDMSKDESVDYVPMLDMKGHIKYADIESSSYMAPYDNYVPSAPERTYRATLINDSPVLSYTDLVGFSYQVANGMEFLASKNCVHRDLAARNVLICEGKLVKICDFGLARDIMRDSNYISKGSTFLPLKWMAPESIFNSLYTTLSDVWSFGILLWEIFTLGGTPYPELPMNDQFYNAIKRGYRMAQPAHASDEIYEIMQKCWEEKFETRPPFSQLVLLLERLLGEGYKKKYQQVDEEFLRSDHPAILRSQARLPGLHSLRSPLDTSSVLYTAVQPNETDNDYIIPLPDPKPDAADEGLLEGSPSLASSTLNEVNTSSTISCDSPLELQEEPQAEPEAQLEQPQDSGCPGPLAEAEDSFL

Consider `Cc1ncc(C(=O)NCCN2CCCOCC2)cc1Nc1nn(C)c2nc(Nc3cnn(C)c3)ncc12` [Example 17, N-(2-(1,4-oxazepan-4-yl)ethyl)-6-methyl-5-((1-methyl-6-((1-methyl-1H-pyrazol-4-yl)amino)-1H-pyrazolo[3,4-d]pyrimidin-3-yl)amino)nicotinamide], for which the pIC50 was 9.32 in test [1]; 7.17 at PDGFRβ; 8.54 in test [2]; about 5.16 against VEGFR2, unphosphorylated.
On to `Cc1ncc(NC(=O)CN2CCCC2(C)C)cc1Nc1nn(C)c2nc(Nc3cnn(C)c3)ncc12` [Example 70, 2-(2,2-dimethylpyrrolidin-1-yl)-N-(6-methyl-5-((1-methyl-6-((1-methyl-1H-pyrazol-4-yl)amino)-1H-pyrazolo[3,4-d]pyrimidin-3-yl)amino)pyridin-3-yl)acetamide], for which the pIC50 in test [1] was 9.70; on PDGFRβ, 9.05; in test [2], 8.74; against VEGFR2, unphosphorylated it was 5.21.
As for `Cc1ncc(C(=O)NCCN2CCC[C@@H]2C)cc1Nc1nn(C)c2nc(Nc3cnn(C)c3C)ncc12` [Example 155, (S)-5-((6-((1,5-dimethyl-1H-pyrazol-4-yl)amino)-1-methyl-1H-pyrazolo[3,4-d]pyrimidin-3-yl)amino)-6-methyl-N-(2-(2-methylpyrrolidin-1-yl)ethyl)nicotinamide], the negative-log IC50 (pIC50) was 8.70 in test [1]; 6.77 on PDGFRβ; 7.81 in test [2]; under 5.12 against VEGFR2, unphosphorylated.
For `Cc1ncc(C(=O)NCCN2CCCC2(C)C)cc1Nc1nn(C)c2nc(Nc3ccnc(N4CCC(CCO)CC4)c3)ncc12` [Example 111, N-(2-(2,2-dimethylpyrrolidin-1-yl)ethyl)-5-((6-((2-(4-(2-hydroxyethyl)piperidin-1-yl)pyridin-4-yl)amino)-1-methyl-1H-pyrazolo[3,4-d]pyrimidin-3-yl)amino)-6-methylnicotinamide], in that order: 9.29, 6.97, 8.29 and under 5.12.
In the case of `Cc1ncc(C(=O)NCCN2C[C@H](C)O[C@@H](C)C2)cc1Nc1nn(C)c2nc(Nc3cnn(C)c3)ncc12` (relative stereo) [Example 92, N-(2-(trans-2,6-dimethylmorpholino)ethyl)-6-methyl-5-((1-methyl-6-((1-methyl-1H-pyrazol-4-yl)amino)-1H-pyrazolo[3,4-d]pyrimidin-3-yl)amino)nicotinamide], the pIC50 in test [1] is 9.16; at PDGFRβ it was 7.64; in test [2] it was 8.37; against VEGFR2, unphosphorylated it was 5.17.
For `COCCn1cc(Nc2ncc3c(Nc4cc(C(=O)NCCN5CCCC5(C)C)cnc4C)nn(C)c3n2)cn1` [Example 148, N-(2-(2,2-dimethylpyrrolidin-1-yl)ethyl)-5-((6-((1-(2-methoxyethyl)-1H-pyrazol-4-yl)amino)-1-methyl-1H-pyrazolo[3,4-d]pyrimidin-3-yl)amino)-6-methylnicotinamide], in that order: 9.13, 7.19, 8.37 and under 5.12.
As for `Cc1ncc(C(=O)NCCN2CCC[C@@H]2C)cc1Nc1nn(C)c2nc(Nc3cncnc3)ncc12` [Example 3, (S)-6-methyl-5-((1-methyl-6-(pyrimidin-5-ylamino)-1H-pyrazolo [3,4-d]pyrimidin-3-yl)amino)-N-(2-(2-methylpyrrolidin-1-yl)ethyl)nicotinamide], the negative logarithm of the IC50 (pIC50) was 9.17 in test [1]; 6.95 at PDGFRβ; 8.17 in test [2]; under 5.12 against VEGFR2, unphosphorylated.
In the case of `CC(=O)Nc1cccc(Nc2ncc3c(Nc4cc(C(=O)NCCN5CCCC5(C)C)cnc4C)nn(C)c3n2)c1` [Example 98, 5-((6-((3-acetamidophenyl)amino)-1-methyl-1H-pyrazolo[3,4-d]pyrimidin-3-yl)amino)-N-(2-(2,2-dimethylpyrrolidin-1-yl)ethyl)-6-methylnicotinamide], the pIC50 in test [1] was 8.70; at PDGFRβ it was 6.14; in test [2] it was 7.92; on VEGFR2, unphosphorylated it was under 5.12.
For `Cc1ncc(C(=O)NCCN2CCCC(F)(F)C2)cc1Nc1nn(C)c2nc(Nc3cncnc3)ncc12` [Example 2, N-(2-(3,3-difluoropiperidin-1-yl)ethyl)-6-methyl-5-((1-methyl-6-(pyrimidin-5-ylamino)-1H-pyrazolo[3,4-d]pyrimidin-3-yl)amino)nicotinamide], in that order: 9.24, 7.57, 8.43 and under 5.12.
For `Cc1nn(C)cc1Nc1ncc2c(Nc3cc(C(=O)NCCN4CCCC4(C)C)cnc3C)nn(C)c2n1` [Example 161, 5-((6-((1,3-dimethyl-1H-pyrazol-4-yl)amino)-1-methyl-1H-pyrazolo[3,4-d]pyrimidin-3-yl)amino)-N-(2-(2,2-dimethylpyrrolidin-1-yl)ethyl)-6-methylnicotinamide], in that order: 8.78, 7.61, 7.88 and under 5.12.
As to `Cn1cc(Nc2ncc3c(Nc4cc(C(=O)NCCN5CCC(F)(F)CC5)ccc4F)nn(C)c3n2)cn1` [Example 63, N-(2-(4,4-difluoropiperidin-1-yl)ethyl)-4-fluoro-3-((1-methyl-6-((1-methyl-1H-pyrazol-4-yl)amino)-1H-pyrazolo[3,4-d]pyrimidin-3-yl)amino)benzamide], the pIC50 in test [1] was 9.70; on PDGFRβ, 8.80; in test [2], 9.05; at VEGFR2, unphosphorylated it was 6.24.
For `Cc1ncc(C(=O)NCCN2C[C@@H](C)O[C@@H](C)C2)cc1Nc1nn(C)c2nc(Nc3cnn(C)c3)ncc12` [Example 91, N-(2-(cis-2,6-dimethylmorpholino)ethyl)-6-methyl-5-((1-methyl-6-((1-methyl-1H-pyrazol-4-yl)amino)-1H-pyrazolo[3,4-d]pyrimidin-3-yl)amino)nicotinamide], in that order: 9.34, 7.35, 8.38 and under 5.12.
For `Cc1ncc(C(=O)NCCC2CCCCC2)cc1Nc1nn(C)c2nc(Nc3ccc(CC#N)nc3)ncc12` [Example 105, 5-((6-((6-(cyanomethyl)pyridin-3-yl)amino)-1-methyl-1H-pyrazolo[3,4-d]pyrimidin-3-yl)amino)-N-(2-cyclohexylethyl)-6-methylnicotinamide], in that order: 9.23, 8.01, 8.57 and 5.47.
For `Cc1ncc(C(=O)NCCN2CCCC2(C)C)cc1Nc1nn(C)c2nc(Nc3cncnc3)ncc12` [Example 27, N-(2-(2,2-dimethylpyrrolidin-1-yl)ethyl)-6-methyl-5-((1-methyl-6-(pyrimidin-5-ylamino)-1H-pyrazolo[3,4-d]pyrimidin-3-yl)amino)nicotinamide] the same measures were 9.15, 7.51, 8.40 and under 5.00.
`CC(=O)Nc1cncc(Nc2ncc3c(Nc4cc(C(=O)NCCN5CCCC5(C)C)cnc4C)nn(C)c3n2)c1` [Example 99, 5-((6-((5-acetamidopyridin-3-yl)amino)-1-methyl-1H-pyrazolo[3,4-d]pyrimidin-3-yl)amino)-N-(2-(2,2-dimethylpyrrolidin-1-yl)ethyl)-6-methylnicotinamide]: the negative logarithm of the IC50 (pIC50) in test [1] is 9.18; on PDGFRβ, 6.86; in test [2], 8.23; against VEGFR2, unphosphorylated, under 5.12.
